The text below walks through data of article PMC3079261 (Tetrahedron letters, 2011).

In general, pIC50 refers to the IC50 on a negative log10 scale, so that one unit is a factor of ten. A lower pIC50 goes with a large IC50.

The target of this experiment is FGFR1 kinase domain (Homo sapiens, UniProt P11362). Kind of experiment: ALPHAScreen assay of inhibition of phosphorylation by FGFR1 kinase. It counts as biochemical. In general terms: Bead proximity is the source of the signal in Alpha formats.

pIC50: −log10 of the molar value.

Chain of FGFR1 kinase domain (P11362 478-767 limits assumed): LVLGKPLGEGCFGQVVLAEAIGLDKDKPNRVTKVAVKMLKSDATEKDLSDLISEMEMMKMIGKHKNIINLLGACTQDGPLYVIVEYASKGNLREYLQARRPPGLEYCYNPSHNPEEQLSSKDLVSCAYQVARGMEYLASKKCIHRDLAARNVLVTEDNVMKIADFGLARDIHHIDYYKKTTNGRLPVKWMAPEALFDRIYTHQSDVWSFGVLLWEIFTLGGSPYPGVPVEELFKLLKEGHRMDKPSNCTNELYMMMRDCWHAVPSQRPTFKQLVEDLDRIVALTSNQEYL

The compound `COc1cc(OC)cc(-c2ccc3c(c2)sc2nc(CCC(=O)O)[nH]c(=O)c23)c1` [compound 7, 3-(7-(3,5-dimethoxyphenyl)-4-oxo-3,4-dihydrobenzo[4,5]thieno[2,3-d]pyrimidin-2-yl)propanoic acid] showed a pIC50 of 4.68.

As to `COc1cc(OC)cc(-c2ccc3c(c2)sc2nc(-c4ccc(OCC(=O)O)c(OC)c4)[nH]c(=O)c23)c1` [compound 6, 2-(4-(7-(3,5-dimethoxyphenyl)-4-oxo-3,4-dihydrobenzo[4,5]thieno[2,3-d]pyrimidin-2-yl)-2-methoxyphenoxy)acetic acid], the pIC50 is 4.55.
